According to patent US8916711B2, “Imidazothiazole-chalcone derivatives as potential anticancer agents and process for the preparation thereof” (Council of Scientific and Industrial Research, priority 2009, dated 2014):
Like-named read-outs stand apart in the source and are kept apart here.

Columns and labels:
Format in all cases: cell-based
SK-MEL-28 = test: NCI in vitro cytotoxicity (SRB, 48 h), Melanoma panel; settings: Homo sapiens; SK-MEL-28, Melanoma; 48 h exposure
HOP-92 = test: NCI in vitro cytotoxicity (SRB, 48 h), Non-small cell lung panel; settings: Homo sapiens
PC-3 = test: NCI in vitro cytotoxicity (SRB, 48 h), Prostate panel; settings: Homo sapiens; PC-3, Prostate; 48 h exposure
EKVX = test: NCI in vitro cytotoxicity (SRB, 48 h), Non-small cell lung panel; settings: Homo sapiens, 48 h exposure
UACC-62 = test: NCI in vitro cytotoxicity (SRB, 48 h), Melanoma panel; settings: Homo sapiens; UACC-62, Melanoma; 48 h exposure
CAKI-1 = test: NCI in vitro cytotoxicity (SRB, 48 h), Renal panel; settings: Homo sapiens; for GI50: CAKI-1, Renal, 48 h exposure
SF-539 = test: NCI in vitro cytotoxicity (SRB, 48 h), CNS panel; settings: Homo sapiens; SF-539, CNS; 48 h exposure
NCI-H226 = test: NCI in vitro cytotoxicity (SRB, 48 h), Non-small cell lung panel; settings: Homo sapiens, 48 h exposure
DU-145 = test: NCI in vitro cytotoxicity (SRB, 48 h), Prostate panel; settings: Homo sapiens; DU-145, Prostate; 48 h exposure
OVCAR-5 = test: NCI in vitro cytotoxicity (SRB, 48 h), Ovarian panel; settings: Homo sapiens; OVCAR-5, Ovarian; 48 h exposure
[1] = test system: Non-small-cell lung cancer cell lines; test: NCI in vitro cytotoxicity, whole panel; settings: Homo sapiens; for CC50: read-out: Log10 LC50 (converted)
IGROV1 = test: NCI in vitro cytotoxicity (SRB, 48 h), Ovarian panel; settings: Homo sapiens, IGROV-1
CNS cancer cell lines = test: NCI in vitro cytotoxicity, whole panel; settings: Homo sapiens; for CC50: read-out: Log10 LC50 (converted)
NCI-H460 = test: NCI in vitro cytotoxicity (SRB, 48 h), Non-small cell lung panel; settings: Homo sapiens, 48 h exposure
K-562 = test: NCI in vitro cytotoxicity (SRB, 48 h), Leukemia panel; settings: Homo sapiens, K562; K-562, Leukemia; 48 h exposure
A498 = test: NCI in vitro cytotoxicity (SRB, 48 h), Renal panel; settings: Homo sapiens, 48 h exposure
[2] = test system: Ovarian cancer cell lines; test: NCI in vitro cytotoxicity, whole panel; settings: Homo sapiens; for CC50: read-out: Log10 LC50 (converted)
HOP-62 = test: NCI in vitro cytotoxicity (SRB, 48 h), Non-small cell lung panel; settings: Homo sapiens; HOP-62, Non-small cell lung; 48 h exposure
HCT-15 = test: NCI in vitro cytotoxicity (SRB, 48 h), Colon panel; settings: Homo sapiens; HCT-15, Colon; 48 h exposure
BT-549 = test: NCI in vitro cytotoxicity (SRB, 48 h), Breast panel; settings: Homo sapiens; BT-549, Breast; 48 h exposure
SK-OV-3 = test: NCI in vitro cytotoxicity (SRB, 48 h), Ovarian panel; settings: Homo sapiens; SK-OV-3, Ovarian; 48 h exposure
786-0 = test: NCI in vitro cytotoxicity (SRB, 48 h), Renal panel; settings: Homo sapiens; 786-0, Renal; 48 h exposure
COLO 205 = test: NCI in vitro cytotoxicity (SRB, 48 h), Colon panel; settings: Homo sapiens; COLO 205, Colon; 48 h exposure
[3] = test system: sixty human tumour cell lines; test: NCI in vitro cytotoxicity, all panels; settings: for CC50: read-out: Log10 LC50 mean graph midpoint (MG_MID) (converted)
SK-MEL-2 = test: NCI in vitro cytotoxicity (SRB, 48 h), Melanoma panel; settings: Homo sapiens; SK-MEL-2, Melanoma; 48 h exposure
SW-620 = test: NCI in vitro cytotoxicity (SRB, 48 h), Colon panel; settings: Homo sapiens; SW-620, Colon; 48 h exposure
MDA-MB-231/ATCC = test: NCI in vitro cytotoxicity (SRB, 48 h), Breast panel; settings: Homo sapiens; for GI50: Breast, 48 h exposure
Procedure: (§1) The imidazothiazole-chalcone hybrids 7a, 7e, 7f, 8f and 19e have been tested against sixty human tumour cell lines derived from nine cancer types (leukemia, non-small cell lung cancer, colon cancer, CNS cancer, melanoma, ovarian cancer, renal cancer, prostate cancer and breast cancer) as per NCI protocol. For each compound, dose response curves for individual cell lines have been measured at a minimum of five concentrations at 10 fold dilutions. A protocol of 48 h continuous drug exposure has been used, and a sulforhodamine B (SRB) protein assay was used to estimate cell viability or growth. The concentration for 50% cell growth inhibition (GI50), total cell growth inhibition (TGI, 0% growth) and 50% cell death (LC50, […]) compared with the control has been calculated (Table-1).

MCF7 = test: as above; settings: Homo sapiens; for GI50: MCF7, Breast, 48 h exposure
Procedure: as §1

NCI-H23 = test: NCI in vitro cytotoxicity (SRB, 48 h), Non-small cell lung panel; settings: Homo sapiens, 48 h exposure
MALME-3M = test: NCI in vitro cytotoxicity (SRB, 48 h), Melanoma panel; settings: Homo sapiens, 48 h exposure
ACHN = test: NCI in vitro cytotoxicity (SRB, 48 h), Renal panel; settings: Homo sapiens, 48 h exposure
RPMI-8226 = test: NCI in vitro cytotoxicity (SRB, 48 h), Leukemia panel; settings: Homo sapiens; RPMI-8226, Leukemia; 48 h exposure
RXF 393 = test: NCI in vitro cytotoxicity (SRB, 48 h), Renal panel; settings: Homo sapiens; RXF 393, Renal; 48 h exposure
UACC-25 = test: NCI in vitro cytotoxicity (SRB, 48 h), Melanoma panel; settings: Homo sapiens; UACC-25, Melanoma; 48 h exposure
[4] = HOP-92, Non-small cell lung, 48 h exposure
[5] = Non-small-cell lung, average of six to eight cell lines, read-out: Log10 GI50 (converted)
[6] = Non-small-cell lung, average of six to eight cell lines
[7] = exposure period of at least 48 hrs, read-out: GI50, range over lung cell lines
[8] = CNS cell, exposure period of at least 48 hrs, read-out: GI50, range over CNS cell lines
[9] = CNS, average of six to eight cell lines, read-out: Log10 GI50 (converted)
[10] = CNS, average of six to eight cell lines
[11] = Ovarian, average of six to eight cell lines, read-out: Log10 GI50 (converted)
[12] = Ovarian, average of six to eight cell lines
[13] = exposure period of at least 48 hrs, read-out: GI50, range over ovarian cell lines
[14] = Homo sapiens, sixty cell lines, nine panels, read-out: GI50 against sixty cell lines in nine cell panels
[15] = human tumour cell lines, read-out: Log10 GI50 mean graph midpoint (MG_MID) (converted)

In the case of `COc1cc(C(=O)/C=C/c2c(-c3ccc(F)cc3)nc3sccn23)cc(OC)c1OC` [Compound 7e, (E)-3-(6-(4-fluorophenyl)imidazo[2,1-b]thiazol-5-yl)-1-(3,4,5-trimethoxyphenyl)prop-2-en-1-one], the GI50 (SK-MEL-28) is reported as 4190 nM, the GI50 (HOP-92; [4]) is reported as 1050 nM and the GI50 (HOP-92; HOP-92, non-small cell lung) is reported as 1050 nM. The IC50 (HOP-92; HOP-92, Table 4, read-out: Comparative efficacy) was 1050 nM, the GI50 (PC-3) was 3430 nM and the GI50 (EKVX) was 2740 nM. The GI50 (UACC-62) was 1820 nM, the GI50 (CAKI-1) was 40 nM and the IC50 (CAKI-1; CAKI-1, Table 4, read-out: Comparative efficacy) was 40 nM. For the same molecule, the GI50 (SF-539) was 1740 nM, the GI50 (NCI-H226) was 1890 nM and the GI50 (DU-145) was 2450 nM. For the same molecule, the GI50 (OVCAR-5) was 1920 nM, the GI50 [1, 5] was 2240 nM and the CC50 [1, 6] was 56200 nM. For the same molecule, the GI50 [1, 7] was 1050 to 3630 nM, the GI50 (IGROV1; IGROV1, Ovarian, 48 h exposure) was 1040 nM and the GI50 (IGROV1; IGROV1, ovarian) was 1040 nM. It also gave an IC50 (IGROV1; IGROV1, Table 4, read-out: Comparative efficacy) of 1040 nM, a GI50 (CNS cancer cell lines; [8]) of 1740 to 3730 nM and a GI50 (CNS cancer cell lines; [9]) of 2340 nM. The CC50 (CNS cancer cell lines; [10]) was 52500 nM, the GI50 (NCI-H460) was 2300 nM and the GI50 (K-562) was 1550 nM. It also gave a GI50 (A498) of 2730 nM, a GI50 [2, 11] of 2190 nM and a CC50 [2, 12] of 52500 nM. For the same molecule, the GI50 [2, 13] was 1040 to 3780 nM, the GI50 (HOP-62) was 2250 nM and the GI50 (HCT-15) was 2940 nM. The GI50 (BT-549) was 3760 nM, the GI50 (SK-OV-3) was 3020 nM and the GI50 (786-0) was 2510 nM. For the same molecule, the GI50 (COLO 205) was 2790 nM, the GI50 [3, 14] was < 9000 nM and the “Log10 TGI mean graph midpoint (MG_MID)” value ([3]; human tumour cell lines) was −5.02. For the same molecule, the “in vitro cytotoxicity, in words” value ([3]; human tumour cell lines) was “significant cytotoxicity”, the GI50 [3, 15] was 2240 nM and the CC50 ([3]; human tumour cell lines) was 58900 nM. The GI50 (SK-MEL-2) was 2520 nM, the GI50 (SW-620) was 2990 nM and the GI50 (MDA-MB-231/ATCC) was 2490 nM. It also gave an IC50 (MDA-MB-231/ATCC; Table 4, read-out: Comparative efficacy) of 2490 nM, an IC50 (MCF7; MCF7, MCF-7, Table 4, read-out: Comparative efficacy) of 2240 nM and a GI50 (MCF7) of 2240 nM. For the same molecule, the GI50 (NCI-H23) was 2490 nM, the GI50 (MALME-3M) was 8270 nM and the GI50 (ACHN) was 2960 nM.
Work on `COc1cc(C(=O)/C=C/c2c(-c3ccc(F)cc3)nc3sc(C)cn23)cc(OC)c1OC` [Compound 19e, (E)-3-(6-(4-fluorophenyl)-2-methylimidazo[2,1-b]thiazol-5-yl)-1-(3,4,5-trimethoxyphenyl)prop-2-en-1-one] yielded a GI50 (SK-MEL-28) of 7070 nM, a GI50 (HOP-92; [4]) of 150 nM and a GI50 (HOP-92; HOP-92, non-small cell lung) of 150 nM. It also gave a GI50 (PC-3) of 2410 nM, a GI50 (EKVX) of 2290 nM and a GI50 (RPMI-8226) of 2320 nM. The GI50 (UACC-62) was 2910 nM, the GI50 (CAKI-1) was 1780 nM and the GI50 (SF-539) was 6230 nM. For the same molecule, the GI50 (NCI-H226) was 9580 nM, the GI50 (DU-145) was 7520 nM and the GI50 (RXF 393) was 5750 nM. The GI50 (OVCAR-5) was > 100000 nM, the GI50 [1, 5] was 4470 nM and the CC50 [1, 6] was ≥ 100000 nM. The GI50 [1, 7] was 150 to 85100 nM, the GI50 (IGROV1; IGROV1, Ovarian, 48 h exposure) was 8710 nM and the GI50 (CNS cancer cell lines; [8]) was 2330 to 87800 nM. The GI50 (CNS cancer cell lines; [9]) was 12600 nM, the CC50 (CNS cancer cell lines; [10]) was ≥ 100000 nM and the GI50 (NCI-H460) was 3870 nM. For the same molecule, the GI50 (K-562) was 5460 nM, the GI50 [2, 11] was 6760 nM and the CC50 [2, 12] was 100000 nM. The GI50 [2, 13] was ≥ 2280 nM, the GI50 (HOP-62) was 85100 nM and the GI50 (HCT-15) was 3760 nM. The GI50 (BT-549) was 3750 nM, the GI50 (SK-OV-3) was 6120 nM and the GI50 (786-0) was 8880 nM. The GI50 (COLO 205) was 4940 nM, the GI50 [3, 14] was < 9000 nM and the “Log10 TGI mean graph midpoint (MG_MID)” value ([3]; human tumour cell lines) was −4.14. The “in vitro cytotoxicity, in words” value ([3]; human tumour cell lines) was “significant cytotoxicity”, the GI50 [3, 15] was 4790 nM and the CC50 ([3]; human tumour cell lines) was 95500 nM. For the same molecule, the GI50 (SK-MEL-2) was 5750 nM, the GI50 (SW-620) was 5340 nM and the GI50 (UACC-25) was 4750 nM. For the same molecule, the GI50 (MDA-MB-231/ATCC) was 5380 nM, the GI50 (MCF7) was 1810 nM and the GI50 (NCI-H23) was 2240 nM. The GI50 (MALME-3M) was 2690 nM and the GI50 (ACHN) was 5830 nM.
